Values after ≈ are worked out from the molar mass of the structure shown. Where a SMILES comes first, the peptide text is derived from it. [ ]: non-standard residue; d: D form. pGlu = O=C1CC[C@@H](C(=O)O)N1
Assays:
TRH-DE [1] = target: T1, TRH-DE (Sus scrofa, UniProt A0A287AP33); assay: continuous coupled fluorometric TRH-DE assay (TRHAMC substrate, DPP-IV coupling enzyme); assay type: biochemical, porcine; settings: for Ki: non-linear regression, five TRHAMC concentrations and at least three peptide concentrations, mean±S.D. (n=3)
T1 construct: The inventor purified TRH-DE from porcine brain according to purification procedures previously published by Dr. K. Bauer; from tissue; host or cells: porcine brain (TRH-DE); bovine kidney (DPP-IV, gift from Dr. C. H. Williams)
T1 sequence (A0A287AP33 1-1066): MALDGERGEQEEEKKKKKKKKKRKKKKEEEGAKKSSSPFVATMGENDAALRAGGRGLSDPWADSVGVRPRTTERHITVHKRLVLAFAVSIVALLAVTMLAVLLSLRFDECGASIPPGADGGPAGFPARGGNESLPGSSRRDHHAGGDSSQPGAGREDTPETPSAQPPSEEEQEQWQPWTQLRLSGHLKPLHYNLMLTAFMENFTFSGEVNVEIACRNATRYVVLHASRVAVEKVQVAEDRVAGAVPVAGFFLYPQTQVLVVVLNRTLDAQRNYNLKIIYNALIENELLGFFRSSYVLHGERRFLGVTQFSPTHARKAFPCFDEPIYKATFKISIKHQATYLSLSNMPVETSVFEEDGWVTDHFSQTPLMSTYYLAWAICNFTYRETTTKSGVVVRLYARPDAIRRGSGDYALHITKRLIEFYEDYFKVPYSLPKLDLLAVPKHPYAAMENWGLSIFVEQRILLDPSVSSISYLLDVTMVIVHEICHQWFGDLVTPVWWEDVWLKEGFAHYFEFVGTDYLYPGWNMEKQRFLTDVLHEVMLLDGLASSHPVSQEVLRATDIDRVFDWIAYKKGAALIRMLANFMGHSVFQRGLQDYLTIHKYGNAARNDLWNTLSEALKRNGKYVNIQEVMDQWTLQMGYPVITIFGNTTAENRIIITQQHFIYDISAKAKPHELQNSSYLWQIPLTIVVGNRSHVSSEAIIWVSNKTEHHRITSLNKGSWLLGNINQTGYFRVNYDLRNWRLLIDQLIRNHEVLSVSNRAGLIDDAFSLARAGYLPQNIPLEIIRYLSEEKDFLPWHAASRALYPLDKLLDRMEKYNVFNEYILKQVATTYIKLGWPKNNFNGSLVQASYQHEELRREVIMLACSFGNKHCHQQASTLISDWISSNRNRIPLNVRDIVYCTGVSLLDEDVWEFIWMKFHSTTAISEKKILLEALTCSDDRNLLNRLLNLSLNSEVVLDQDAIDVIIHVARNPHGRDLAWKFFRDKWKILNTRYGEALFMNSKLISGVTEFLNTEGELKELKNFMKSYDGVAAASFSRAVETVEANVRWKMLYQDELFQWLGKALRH
Protocol: The inventor purified TRH-DE from porcine brain according to purification procedures previously published by Dr. K. Bauer, (Max-Planck-Institut, Hannover, Germany) (1). TRH-DE was purified almost 20,000 fold. […] Dipeptidyl peptidase IV (DPP-IV) (EC 3.4.14.5), purified from bovine kidney (7.7 mg ml^−1, specific activity of 17.5 U mg^−1 with Gly-ProAMC as substrate), was obtained as a gilt from Dr. C. H. Williams (Queen's University Belfast, U.K). (DPP-IV was used as the coupling enzyme used in the fluorometric assays).
One unit (U) of enzyme activity was defined as that amount catalysing the formation of one μmol of product in one minute under the standard conditions employed. All incubations in the assays described below were carried out in 20 mM potassium phosphate buffer, pH 7.5, at 37° C.
Kinetic analysis of peptides that are not hydrolysed by TRH-DE. A recently-developed continuous coupled fluorometric assay (23) was used to investigate the ability of those library peptides that were not hydrolysed by TRH-DE to inhibit TRHAMC degradation by TRH-DE. In this assay, TRHAMC is the substrate and dipeptidyl peptidase IV (DPP-IV) (EC 3.4.14.5) is the coupling enzyme. The reaction sequence is:
The reaction was monitored continuously by measuring the increase in AMC fluorescence. A linear progress curve with no discernible lag period was observed when the reaction was monitored over a period of 10 minutes. Nevertheless, data sampling was not commenced until 100 s from the start of the reaction to ensure measurements were taken after a steady state had been reached (see Ref. 23).
In a preliminary experiment, the peptides were screened for their ability to inhibit TRH-DE activity. The initial rate of TRHAMC hydrolysis by TRH-DE was measured by incubating 5 μM TRHAMC with 1.23 μg DPP-IV and 0.32 μg TRH-DE, both in the absence and presence of each library peptide (1 mM final concentration) under standard assay conditions (23). In each case the percentage inhibition (i%) was calculated using the equation i%=100(1-vi/vo), where vi and vo are the initial velocities in the presence and absence of peptide, respectively.
Since these peptides were poor inhibitors they were not examined further. The Ki values for the remainder of the peptides were determined by measuring their effects on TRHAMC degradation by TRH-DE using the continuous assay. Data were collected in duplicate at five different substrate concentrations and at least three different concentrations of each peptide.
Reversibility and time dependence of the inhibition produced by Glp-Gln-ProNH2, Glp-Asn-ProNH2 and Glp-Asn-ProAMC were examined by initially preincubating TRH-DE with each peptide at 37° C. for various periods up to 75 min. To investigate time dependence, the enzyme-peptide solution was subsequently added to the reaction mixture containing TRHAMC, DPP-IV, buffer and peptide, and TRH-DE activity was measured using the continuous assay. The final concentration of Glp-Gln-ProNH2, Glp-Asn-ProNH2 and Glp-Asn-ProAMC used was 400, 160 and 1 μM, respectively. […] TRH-DE activity was not affected by pre-incubation at 37° C.
Fluorescence measurements were made using a Perkin Elmer LS 50B Luminescence Spectrometer fitted with a thernostated cell holder. Wavelengths for excitation and emission were set at 370 nm and 440 nm, respectively, with slit widths of 10 nm and 5 nm, respectively.

TRH-DE [2] = target: T1, TRH-DE; assay: HPLC assay of peptide hydrolysis by TRH-DE (Glp production); assay type: biochemical, porcine; settings: 1 mM peptide incubated with TRH-DE 18 h at 37° C., HPLC
How it was run: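 Porcine brain TRH-DE incubated with 1 mM peptide in 20 mM potassium phosphate, pH 7.5, 37 °C: screen with 0.8 μg enzyme for 18 h; rate microassays with 0.8-3.2 μg enzyme for 5 min to 18 h, in triplicate. Reactions stopped with TFA; Glp quantified by C-18 reverse-phase HPLC, UV 206 nm.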

[3] = target: TRH receptors in rat cortical membranes; assay: radioligand binding to ^3H-3MeHis-TRH-labelled receptors in rat cortex; settings: competition with 6-8 nM ^3H-3MeHis-TRH, Cheng-Prusoff
Protocol: Evaluation of the ability of TRH, Glp-Asn-ProNH2, and Glp-Asn-ProAMC to bind to ^3H-3MeHis-TRH-labelled receptors in rat cortex: Radioligand binding assays were conducted to investigate the possibility that the two TRH-DE inhibitors might exert their effects by acting independently at TRH receptors in the brain.
Cortex tissue from male Sprague-Dawley rats (250 g) was dissected out, weighed and homogenised in 30 volumes of ice-cold sodium phosphate buffer (0.02 M, pH 7.5). The homogenates were centrifuged at 30,000 g at 4° C. for 30 min. The supernatant was discarded and the pellet was resuspended at 100 mg wet wt/ml in buffer containing 177 μM bacitracin. […] Non-specific binding was defined in the presence of 10 μM TRH.
The statistical significance of differences between behavioural effects of treatments was determined using the Student's t-test or ANOVA, followed by a post-ANOVA test, as indicated. Radioligand binding data were analysed using non-linear curve fitting software (Prism, Graph Pad Software Inc.). IC50 values calculated from competition experiments were converted to Ki values using the Cheng-Prusoff (41) equation Ki=IC50/(1+L/Kd), where L=ligand concentration and Kd=the apparent dissociation constant for [^3H]-[3-MeHis]TRH.

solubility (physchem): 1000 µg/mL (≈ 2950 µM) | mode of inhibition of TRH-DE (TRH-DE [1]; continuous assay, Lineweaver-Burk plot): simple competitive inhibitors | Ki (TRH-DE [1]): 17.5 µM | Ki (TRH-DE [1]; listed as Glp-Asn-Pro-NH2): 17.5 µM | inhibition at 1000 µM (TRH-DE [1]; peptide 1 mM, 5 μM TRHAMC substrate): 97% | reversibility and time dependence of inhibition (TRH-DE [1]; preincubation with TRH-DE up to 75 min at 37° C., Glp-Gln-ProNH2 400, Glp-Asn-ProNH2 160, Glp-Asn-ProAMC 1 μM): fully reversible and not time-dependent | hydrolysis by TRH-DE (release of Glp) (TRH-DE [2]): No detectable Glp | pKi [3]: 5.15±0.24
Structure (SMILES): NC(=O)C[C@H](NC(=O)[C@@H]1CCC(=O)N1)C(=O)N1CCC[C@H]1C(N)=O [Glp-Asn-ProNH2, pyroglutamyl-asparaginyl-prolineamide] ([pGlu]-Asn-Pro-NH2)
